In patent US20220265597A1, “ANTIVIRAL EFFECTS OF NARASIN IN SWINE FEED” (Elanco US Inc., priority 2014, published 2022):
Marks after values point to notes of the source that are not given here.

What was measured:
[1] = system: PEDV; assay: Growth performance of nursery pigs challenged with PEDV, narasin in feed; type: in vivo, pig; conditions: for numerical increase of overall ADG compared to the control / numerical increase of overall G:F compared to the control: overall (Day 0 to 14)
Description: Eighty-one weaning stage (21.8+/−0.6 days) commercial crossbred piglets (Wilson's Prairie View Farms, Burlington, Wis.) free of PEDV infection arrived at the site and six were used as potential replacement animals during the pre-challenge period (Day −7 to Day 0). Six piglets were removed at Day 0 immediately prior to PEDV challenge, resulting in fifteen pens containing five piglets/pen (n=75) animals. There were five pens per treatment. For balance of sentinel piglets within a block, a total of thirty-nine piglets of one gender and thirty-six of the other gender were used. The use of five pens (twenty-five piglets) per treatment group was estimated to detect significant differences (P<0.10) between treatment groups in growth performance and incidence of viral shedding.
The seventy-five piglets were randomly assigned to one of three treatment groups: control (no ionophore), narasin (30 mg/kg) and narasin (60 mg/kg). They acclimatized to their environment and were fed daily for seven days prior to exposure with PEDV on Day 0. Treatment continued for 14 days following challenge. Pigs from the three treatment groups were administered orally with 4×10^4 TCID50/mL of the PEDV isolate PEDV/USA/NC/2013/49469 (College of Veterinary Medicine, Iowa State University). The piglets were monitored daily for changes in clinical parameters, clinical score for diarrhea, depression and gauntness, rate of food consumption, and rate of body weight change and viral swabs were taken daily to determine viral shedding.
Viral shedding values was evaluated by RMANOVA and the PROC MIXED procedure of SAS (SAS, Cary, N.C.). Other variables for analysis included growth performance data (average daily gain, or ADG; average daily feed intake, or ADFI; and feed efficiency (unit of weight gain per unit of feed consumed), or G:F), incidence and severity of diarrhea, depression, and gauntness scores, and intestinal histology score and immunohistochemistry. The analysis of the growth performance outcomes were conducted using a generalized linear mixed model and the PROC MIXED procedure of SAS.
Diet formulations were manufactured at Provimi (Lewisburg, Ohio) and fed in meal form.
The effects of narasin inclusion level on mean body weights (BW), average daily weight gain (ADG), average daily feed intake (ADFI), feed efficiency (G:F), and feed conversion ratio (F:G) are shown in Table 1.

[2] = system: nursery pigs; conditions: about 83 mg/kg feed, at least in the presence of tiamulin; cited from earlier work
[3] = system: flavivirus responsible for dengue fever; conditions: added to cultured human cells infected with the virus (Low, et al. 2011); cited from earlier work
[4] = 60 mg/kg feed, Day 0 to 5, P<0.10

With `CC[C@@H](C(=O)O)[C@@H]1O[C@@H]([C@@H](C)[C@H](O)[C@H](C)C(=O)[C@H](CC)[C@H]2O[C@]3(C=C[C@@H](O)[C@]4(CC[C@@](C)([C@H]5CC[C@](O)(CC)[C@H](C)O5)O4)O3)[C@H](C)C[C@@H]2C)[C@@H](C)C[C@@H]1C` [narasin] the “differences for ADG, ADFI, G:F, or F:G” value ([1]; 0, 30, 60 mg/kg feed, Day 5 to 14) was “no statistical differences”, the BW ([1]; 30 mg/kg feed, Day 0 (PEDV challenge)) was 16.9 lb and the ADFI ([1]; 30 mg/kg feed, Day 0 to 5) was 0.68 lb. The ADG ([1]; 30 mg/kg feed, Day 0 to 5) was 0.38* lb, the “F:G” value ([1]; 30 mg/kg feed, Day 0 to 5) was 1.93 lb:lb and the “G:F” value ([1]; 30 mg/kg feed, Day 0 to 5) was 0.551 lb:lb. For the same compound, the “increase of ADG compared to the control” value ([1]; 30 mg/kg feed, Day 0 to 5, P<0.10) was 58.3%, the ADFI ([1]; 30 mg/kg feed, Day 0 to 14) was 1.00 lb and the ADG ([1]; 30 mg/kg feed, Day 0 to 14) was 0.70 lb. For the same compound, the “F:G” value ([1]; 30 mg/kg feed, Day 0 to 14) was 1.48 lb:lb, the “G:F” value ([1]; 30 mg/kg feed, Day 0 to 14) was 0.711 lb:lb and the BW ([1]; 30 mg/kg feed, Day 5) was 18.7 lb. The ADFI ([1]; 30 mg/kg feed, Day 5 to 14) was 1.23 lb, the ADG ([1]; 30 mg/kg feed, Day 5 to 14) was 0.92 lb and the “F:G” value ([1]; 30 mg/kg feed, Day 5 to 14) was 1.38 lb:lb. For the same compound, the “G:F” value ([1]; 30 mg/kg feed, Day 5 to 14) was 0.772 lb:lb, the BW ([1]; 30 mg/kg feed, Day 14) was 26.9 lb and the BW ([1]; 30 mg/kg feed, Day −7 (arrival, allotment)) was 14.9* lb. The ADFI ([1]; 30 mg/kg feed, Day −7 to 0) was 0.37 lb, the ADG ([1]; 30 mg/kg feed, Day −7 to 0) was 0.29 lb and the “F:G” value ([1]; 30 mg/kg feed, Day −7 to 0) was 1.33 lb:lb. For the same compound, the “G:F” value ([1]; 30 mg/kg feed, Day −7 to 0) was 0.802 lb:lb, the “numerical increase of overall ADG compared to the control” value ([1]; 30 mg/kg feed) was 7.7% and the “numerical increase of overall G:F compared to the control” value ([1]; 30 mg/kg feed) was 7.9%. The BW ([1]; 60 mg/kg feed, Day 0 (PEDV challenge)) was 16.7 lb, the ADFI ([1]; 60 mg/kg feed, Day 0 to 5) was 0.71 lb and the ADG ([1]; 60 mg/kg feed, Day 0 to 5) was 0.48* lb. For the same compound, the “F:G” value ([1]; 60 mg/kg feed, Day 0 to 5) was 1.56 lb:lb, the “G:F” value ([1]; 60 mg/kg feed, Day 0 to 5) was 0.670* lb:lb and the “increase of ADG compared to the control” value [1, 4] was 100%. For the same compound, the “increase of G:F compared to 0 mg/kg narasin” value [1, 4] was 78.7%, the ADFI ([1]; 60 mg/kg feed, Day 0 to 14) was 1.01 lb and the ADG ([1]; 60 mg/kg feed, Day 0 to 14) was 0.70 lb. The “F:G” value ([1]; 60 mg/kg feed, Day 0 to 14) was 1.44 lb:lb, the “G:F” value ([1]; 60 mg/kg feed, Day 0 to 14) was 0.698 lb:lb and the BW ([1]; 60 mg/kg feed, Day 5) was 19.2 lb. For the same compound, the ADFI ([1]; 60 mg/kg feed, Day 5 to 14) was 1.22 lb, the ADG ([1]; 60 mg/kg feed, Day 5 to 14) was 0.85 lb and the “F:G” value ([1]; 60 mg/kg feed, Day 5 to 14) was 1.42 lb:lb. For the same compound, the “G:F” value ([1]; 60 mg/kg feed, Day 5 to 14) was 0.708 lb:lb, the BW ([1]; 60 mg/kg feed, Day 14) was 26.9 lb and the BW ([1]; 60 mg/kg feed, Day −7 (arrival, allotment)) was 14.9* lb. The ADFI ([1]; 60 mg/kg feed, Day −7 to 0) was 0.36 lb, the ADG ([1]; 60 mg/kg feed, Day −7 to 0) was 0.26* lb and the “F:G” value ([1]; 60 mg/kg feed, Day −7 to 0) was 1.38 lb:lb. The “G:F” value ([1]; 60 mg/kg feed, Day −7 to 0) was 0.742 lb:lb, the “decrease of ADG compared to the control” value ([1]; 60 mg/kg feed, Day −7 to 0, P<0.10) was 18.8% and the “numerical increase of overall ADG compared to the control” value ([1]; 60 mg/kg feed) was 7.7%. The “numerical increase of overall G:F compared to the control” value ([1]; 60 mg/kg feed) was 5.9%, the “toxicity to nursery pigs” value [2] was “toxic” and the “replication of dengue flavivirus” value [3] was “block replication”.
